Data reported in ChEMBL document CHEMBL1201862, “PubChem BioAssay data set” (2004).
The source made the active and inactive calls.

tested on: not listed separately; experiment: inhibitors of firefly luciferase expression or activity, dose response, H4 neuroglioma cells, luminescence (AID 1990); format: functional, cell-based; details: not given

| SMILES | EC50 |
| --- | --- |
| CC1C(=O)C(C)C(c2ccc(Cl)cc2)NC1c1ccc(Cl)cc1 (configuration not stated) | 13.8 µM (active) |
| COc1cc(C(=O)NC(=S)N(CCc2ccccc2)CCc2ccccc2)cc(OC)c1OC | > 120 µM (not active) |
| O=C(CN(Cc1ccc(F)cc1)C(=O)C1CSC(=O)C1)NC1CCCCC1 (configuration not stated) | > 120 µM (not active) |
| C1CCCCCC2(CCCCC1)OCC(CN1CCOCC1)O2 (configuration not stated) | > 120 µM (not active) |
| COc1ccc(N2C(N)=NC(N)=NC2(C)C)cc1 | 10 µM (active) |
| Cc1cc(C)c(S(=O)(=O)N(C)CC(=O)NC2CCCC2)c(C)c1 | > 120 µM (not active) |
| CCC1CN(C(=O)N2CCC(C(=O)NCc3ccc(C)o3)CC2)c2ccccc2O1 (configuration not stated) | > 120 µM (not active) |
| COc1ccc(C(=O)/N=C2\SC3CS(=O)(=O)CC3N2Cc2ccccc2)cc1OC (configuration not stated) | 26.2 µM (active) |

molecular target: T1, Zinc finger protein mex-5 (Caenorhabditis elegans, UniProt Q9XUB2); experiment: MEX-5/TCR-2 RNA interaction inhibitors, dose response, biochemical, C. elegans, fluorescence polarization (AID 1960); details: not given
T1 sequence (Q9XUB2 whole entry): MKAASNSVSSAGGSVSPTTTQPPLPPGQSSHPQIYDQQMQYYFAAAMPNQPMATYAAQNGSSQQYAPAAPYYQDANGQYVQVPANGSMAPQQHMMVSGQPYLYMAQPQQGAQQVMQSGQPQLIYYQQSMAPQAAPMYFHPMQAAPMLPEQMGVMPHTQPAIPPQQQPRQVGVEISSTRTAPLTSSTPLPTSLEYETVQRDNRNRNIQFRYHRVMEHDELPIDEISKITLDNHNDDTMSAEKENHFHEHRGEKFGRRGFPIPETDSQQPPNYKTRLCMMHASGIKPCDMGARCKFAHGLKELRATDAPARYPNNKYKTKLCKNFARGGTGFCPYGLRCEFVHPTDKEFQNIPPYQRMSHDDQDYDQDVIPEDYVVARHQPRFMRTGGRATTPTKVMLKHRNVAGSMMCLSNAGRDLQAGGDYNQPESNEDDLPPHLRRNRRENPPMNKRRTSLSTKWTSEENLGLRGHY

| SMILES | EC50 |
| --- | --- |
| O=C(NCC1CCCO1)c1ccc(CS(=O)(=O)Cc2ccc(F)cc2)o1 (configuration not stated) | > 300 µM (not active) |
| C/C(CCc1oc2ccc(Cl)cc2c1-c1ccc(C)o1)=N\O | > 300 µM (not active) |
| CC1C2(C)OC(=N)C(C#N)(C(C)O2)C1(C#N)C#N (configuration not stated) | 16 µM (active) |
| Cc1cc(/C=C2\C(=O)NC(=O)N(c3ccc(F)cc3)C2=O)c(C)n1-c1ccc(C(=O)O)cc1 | > 300 µM (not active) |
| O/C(=C(\C([S-])=NCc1ccco1)[n+]1ccccc1)c1ccccc1Br | 58.4 µM (active) |
| Cc1cccc(C)c1NC(=O)NN=C1CCCCC1 | > 300 µM (not active) |
| COc1ccc(C=C2C(=O)OC(C)(C)OC2=O)cc1OC | > 300 µM (not active) |
| COc1cccc(NC(=O)c2ccccc2Br)c1 | > 300 µM (not active) |
| CC(C)(C)c1ccc(OCc2ccc(C(=O)Nc3cccnc3)o2)cc1 | > 300 µM (not active) |
| COc1ccc(OC)c(S(=O)(=O)NC2CCN(Cc3ccccc3)CC2)c1 | > 300 µM (not active) |
| CCCN1CC=C2C(C#N)=C(N)C(C#N)(C#N)C(c3cc(OC)ccc3OC)C2C1 (configuration not stated) | 25.5 µM (active) |

tested on: not listed separately; experiment: Luminescence Cell-Based Dose Response HTS to Identify Inhibitors of 5'UTR Stem-Loop Driven Prion Protein mRNA Translation in H4 Neuroglioblastoma Cells. [Related pubchem assays: 1827 (Project Summary), 1813 (Primary HTS)]; format: functional; details: not given

| SMILES | EC50 |
| --- | --- |
| COc1ccc(O)c2c(=O)c3c(OC)cc4c(c3oc12)C1C=COC1O4 (configuration not stated) | 19.6 µM (active) |
| CC1C(=O)C(C)C(c2ccc(Cl)cc2)NC1c1ccc(Cl)cc1 (configuration not stated) | 15.7 µM (active) |
| COc1cc(C(=O)NC(=S)N(CCc2ccccc2)CCc2ccccc2)cc(OC)c1OC | 12.2 µM (active) |
| O=C(CN(Cc1ccc(F)cc1)C(=O)C1CSC(=O)C1)NC1CCCCC1 (configuration not stated) | > 120 µM (not active) |
| C1CCCCCC2(CCCCC1)OCC(CN1CCOCC1)O2 (configuration not stated) | > 120 µM (not active) |
| COc1ccc(N2C(N)=NC(N)=NC2(C)C)cc1 | > 120 µM (not active) |
| Cc1cc(C)c(S(=O)(=O)N(C)CC(=O)NC2CCCC2)c(C)c1 | > 120 µM (not active) |
| CCC1CN(C(=O)N2CCC(C(=O)NCc3ccc(C)o3)CC2)c2ccccc2O1 (configuration not stated) | > 120 µM (not active) |
| COc1ccc(C(=O)/N=C2\SC3CS(=O)(=O)CC3N2Cc2ccccc2)cc1OC (configuration not stated) | 25.4 µM (active) |

molecular target: Cytochrome P450 2D6 (Homo sapiens, UniProt P10635); details: not given;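 note: CYP2D6 member of a cytochrome P450 panel assay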
Sequence (P10635 whole entry): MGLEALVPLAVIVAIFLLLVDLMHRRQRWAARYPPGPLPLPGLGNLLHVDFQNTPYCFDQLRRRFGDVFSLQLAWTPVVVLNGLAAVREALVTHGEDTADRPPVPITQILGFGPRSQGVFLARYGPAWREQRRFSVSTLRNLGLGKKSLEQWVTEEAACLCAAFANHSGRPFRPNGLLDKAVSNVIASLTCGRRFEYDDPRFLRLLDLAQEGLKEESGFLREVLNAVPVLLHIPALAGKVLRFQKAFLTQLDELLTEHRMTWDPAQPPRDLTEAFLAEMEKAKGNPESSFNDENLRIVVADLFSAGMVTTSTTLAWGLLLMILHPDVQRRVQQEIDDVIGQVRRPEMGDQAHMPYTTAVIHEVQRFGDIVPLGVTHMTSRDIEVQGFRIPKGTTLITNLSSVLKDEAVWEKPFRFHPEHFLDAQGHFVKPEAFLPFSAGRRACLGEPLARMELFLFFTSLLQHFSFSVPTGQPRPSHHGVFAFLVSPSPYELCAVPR

| SMILES | AC50 |
| --- | --- |
| CCCN1CC=C2C(C#N)=C(N)C(C#N)(C#N)C(c3cc(OC)ccc3OC)C2C1 (configuration not stated) | 15.8 µM (inconclusive) |

molecular target: Cytochrome P450 2C19 (Homo sapiens, UniProt P33261); experiment: Cytochrome panel assay with activity outcomes. Panel member name: p450-cyp2c19 Compounds with AC50 equal or less than 10 uM are considered active; format: functional; details: read-out: AC50
Sequence (P33261 whole entry): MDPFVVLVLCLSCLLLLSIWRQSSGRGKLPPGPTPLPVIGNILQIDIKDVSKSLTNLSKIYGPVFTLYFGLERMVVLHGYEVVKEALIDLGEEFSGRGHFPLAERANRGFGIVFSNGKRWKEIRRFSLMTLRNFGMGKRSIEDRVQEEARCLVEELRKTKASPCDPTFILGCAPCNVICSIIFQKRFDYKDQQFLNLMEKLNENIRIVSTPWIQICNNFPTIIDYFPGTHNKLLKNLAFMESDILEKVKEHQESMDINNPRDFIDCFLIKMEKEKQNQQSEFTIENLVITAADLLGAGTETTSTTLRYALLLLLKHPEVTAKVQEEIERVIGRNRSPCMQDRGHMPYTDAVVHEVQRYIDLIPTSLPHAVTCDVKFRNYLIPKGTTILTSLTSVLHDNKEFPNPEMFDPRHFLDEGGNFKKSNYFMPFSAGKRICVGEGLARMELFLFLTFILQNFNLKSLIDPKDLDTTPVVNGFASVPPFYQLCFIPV

| SMILES | AC50 |
| --- | --- |
| O=C(NCC1CCCO1)c1ccc(CS(=O)(=O)Cc2ccc(F)cc2)o1 (configuration not stated) | 39.8 µM (inconclusive) |
| CCCN1CC=C2C(C#N)=C(N)C(C#N)(C#N)C(c3cc(OC)ccc3OC)C2C1 (configuration not stated) | 14.1 µM (inconclusive) |

tested on: Streptococcus; experiment: Group A Streptococcus viability loss, dose response, counter-screen for streptokinase expression inhibitor project, luminescence, BacTiterGlo (AID 1915); format: functional, organism-based; details: not given;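 note: potency for reduction of bacterial viability or growth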

| SMILES | EC50 |
| --- | --- |
| COc1cc(C(=O)NC(=S)N(CCc2ccccc2)CCc2ccccc2)cc(OC)c1OC | 17.9 µM (active) |

molecular target: T2, RNA-binding protein pos-1 (Caenorhabditis elegans, UniProt G5EF15); experiment: inhibitors of POS-1/mex-3 RNA binding, dose response, biochemical, fluorescence polarization (AID 1964); details: not given;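 note: purified POS-1 fused to maltose binding protein made in E. coli; potency of compounds blocking POS-1 binding to fluorescent RNA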
T2 sequence (G5EF15 whole entry): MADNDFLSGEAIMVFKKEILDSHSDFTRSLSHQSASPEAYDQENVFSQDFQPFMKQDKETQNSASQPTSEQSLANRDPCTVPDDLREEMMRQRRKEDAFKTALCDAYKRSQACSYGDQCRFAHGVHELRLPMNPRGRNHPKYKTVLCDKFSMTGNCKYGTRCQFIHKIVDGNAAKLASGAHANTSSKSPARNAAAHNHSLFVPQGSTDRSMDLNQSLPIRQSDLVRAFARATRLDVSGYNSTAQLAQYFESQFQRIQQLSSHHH

| SMILES | EC50 |
| --- | --- |
| O=C(NCC1CCCO1)c1ccc(CS(=O)(=O)Cc2ccc(F)cc2)o1 (configuration not stated) | > 300 µM (not active) |
| C/C(CCc1oc2ccc(Cl)cc2c1-c1ccc(C)o1)=N\O | > 300 µM (not active) |
| CC1C2(C)OC(=N)C(C#N)(C(C)O2)C1(C#N)C#N (configuration not stated) | > 300 µM (not active) |
| Cc1cc(/C=C2\C(=O)NC(=O)N(c3ccc(F)cc3)C2=O)c(C)n1-c1ccc(C(=O)O)cc1 | > 300 µM (not active) |
| O/C(=C(\C([S-])=NCc1ccco1)[n+]1ccccc1)c1ccccc1Br | > 300 µM (not active) |
| Cc1cccc(C)c1NC(=O)NN=C1CCCCC1 | > 300 µM (not active) |
| COc1ccc(C=C2C(=O)OC(C)(C)OC2=O)cc1OC | > 300 µM (not active) |
| COc1cccc(NC(=O)c2ccccc2Br)c1 | > 300 µM (not active) |
| CC(C)(C)c1ccc(OCc2ccc(C(=O)Nc3cccnc3)o2)cc1 | > 300 µM (not active) |
| COc1ccc(OC)c(S(=O)(=O)NC2CCN(Cc3ccccc3)CC2)c1 | > 300 µM (not active) |
| CCCN1CC=C2C(C#N)=C(N)C(C#N)(C#N)C(c3cc(OC)ccc3OC)C2C1 (configuration not stated) | 27.9 µM (active) |

tested on: not listed separately; experiment: HEp-2 cell cytotoxicity, dose response, cytotoxicity control for RSV inhibitor project, HTS (AID 2410); format: functional; details: human respiratory syncytial virus

| SMILES | CC50 |
| --- | --- |
| C/C(CCc1oc2ccc(Cl)cc2c1-c1ccc(C)o1)=N\O | 37.9 µM (active) |

tested on: not listed separately; experiment: C. albicans growth with fluconazole, confirmation, fluorescence, retest (AID 2467); format: functional, cell-based; details: not given

| SMILES | EC50 |
| --- | --- |
| COc1cc(C(=O)NC(=S)N(CCc2ccccc2)CCc2ccccc2)cc(OC)c1OC | 4.2 µM (active) |

tested on: not listed separately; experiment: inhibitors of SNCA 5'UTR-driven reporter translation, confirmation, H4 neuroglioma cells, luminescence (AID 1988); format: functional, cell-based; details: not given

| SMILES | EC50 |
| --- | --- |
| CC1C(=O)C(C)C(c2ccc(Cl)cc2)NC1c1ccc(Cl)cc1 (configuration not stated) | 17.1 µM (active) |
| COc1cc(C(=O)NC(=S)N(CCc2ccccc2)CCc2ccccc2)cc(OC)c1OC | 10.6 µM (active) |
| O=C(CN(Cc1ccc(F)cc1)C(=O)C1CSC(=O)C1)NC1CCCCC1 (configuration not stated) | > 120 µM (not active) |
| C1CCCCCC2(CCCCC1)OCC(CN1CCOCC1)O2 (configuration not stated) | > 120 µM (not active) |
| COc1ccc(N2C(N)=NC(N)=NC2(C)C)cc1 | 7.02 µM (active) |
| Cc1cc(C)c(S(=O)(=O)N(C)CC(=O)NC2CCCC2)c(C)c1 | > 120 µM (not active) |
| CCC1CN(C(=O)N2CCC(C(=O)NCc3ccc(C)o3)CC2)c2ccccc2O1 (configuration not stated) | > 120 µM (not active) |
| COc1ccc(C(=O)/N=C2\SC3CS(=O)(=O)CC3N2Cc2ccccc2)cc1OC (configuration not stated) | > 120 µM (not active) |

molecular target: Cytochrome P450 2C9 (Homo sapiens, UniProt P11712); details: not given
Sequence (P11712 whole entry): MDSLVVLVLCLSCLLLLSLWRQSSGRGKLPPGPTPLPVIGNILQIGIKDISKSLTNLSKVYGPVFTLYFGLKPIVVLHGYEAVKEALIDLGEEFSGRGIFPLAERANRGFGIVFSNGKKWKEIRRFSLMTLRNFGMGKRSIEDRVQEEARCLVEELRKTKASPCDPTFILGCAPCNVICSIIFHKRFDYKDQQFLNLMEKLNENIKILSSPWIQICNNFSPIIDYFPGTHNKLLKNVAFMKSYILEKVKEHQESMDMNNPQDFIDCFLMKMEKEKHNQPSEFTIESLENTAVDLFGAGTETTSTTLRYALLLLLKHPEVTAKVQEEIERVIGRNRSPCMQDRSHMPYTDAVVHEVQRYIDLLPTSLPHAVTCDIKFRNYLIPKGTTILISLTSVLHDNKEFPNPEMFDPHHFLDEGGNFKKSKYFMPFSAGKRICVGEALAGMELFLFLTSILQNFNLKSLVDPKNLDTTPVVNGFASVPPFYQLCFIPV

| SMILES | AC50 |
| --- | --- |
| CCCN1CC=C2C(C#N)=C(N)C(C#N)(C#N)C(c3cc(OC)ccc3OC)C2C1 (configuration not stated) | 7.94 µM (inconclusive) |

molecular target: T3, Streptokinase A (Streptococcus pyogenes serotype M1, UniProt P10520); experiment: S. pyogenes streptokinase expression inhibitors, potency, dose response, plasminogen activation absorbance, OD405 (AID 1914); format: functional, Streptococcus pyogenes M1 GAS; details: not given;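 note: secreted streptokinase activity via plasminogen activation per viability signal from cell pellet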
T3 sequence (P10520 whole entry): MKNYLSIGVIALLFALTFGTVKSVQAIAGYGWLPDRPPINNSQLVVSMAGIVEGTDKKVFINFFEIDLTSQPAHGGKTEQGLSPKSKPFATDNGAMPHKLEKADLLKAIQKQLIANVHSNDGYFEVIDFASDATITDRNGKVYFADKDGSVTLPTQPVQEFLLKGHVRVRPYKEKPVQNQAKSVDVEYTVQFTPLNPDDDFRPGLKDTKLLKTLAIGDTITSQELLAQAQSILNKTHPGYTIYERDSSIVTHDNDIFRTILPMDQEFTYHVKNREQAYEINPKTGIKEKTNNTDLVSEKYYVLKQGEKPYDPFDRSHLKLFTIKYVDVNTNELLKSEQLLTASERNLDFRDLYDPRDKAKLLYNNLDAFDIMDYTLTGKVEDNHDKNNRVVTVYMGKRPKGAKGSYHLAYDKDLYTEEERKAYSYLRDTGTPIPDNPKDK

| SMILES | EC50 |
| --- | --- |
| COc1cc(C(=O)NC(=S)N(CCc2ccccc2)CCc2ccccc2)cc(OC)c1OC | > 150 µM (not active) |

tested on: Streptococcus sp. 'group A'; experiment: growth inhibition of control SK(-) GAS strain, dose response, counter-screen for streptokinase expression inhibitor project, luminescence, kanamycin, BacTiterGlo, confirmation (AID 1900); format: functional, organism-based; details: not given

| SMILES | EC50 |
| --- | --- |
| COc1cc(C(=O)NC(=S)N(CCc2ccccc2)CCc2ccccc2)cc(OC)c1OC | 0.525 µM (active) |

tested on: not listed separately; experiment: NIH-3T3 fibroblast cytotoxicity, dose response, cytotoxicity control, cell-based, fluorescence, Alamar Blue, secondary assay (AID 2327); format: functional; details: not given;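 note: NIH-3T3 mouse fibroblasts cultured with fluconazole at 8 µg/mL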

| SMILES | EC50 |
| --- | --- |
| COc1cc(C(=O)NC(=S)N(CCc2ccccc2)CCc2ccccc2)cc(OC)c1OC | 28.6 µM (active) |
